# How the values were obtained:
# cTnI = cTnI detection via heterogeneous assay; format: biochemical
# Procedure: This example describes a method of detecting cTnI (Cardiac Troponin I) using an AK-Abl particle prepared e.g., as set forth in Example 3 and a HRP-Ab2 conjugate prepared e.g., as set forth in Example 4 where Ab2 represents an antibody to cTnI. The effect of ascorbic acid on background signal was investigated.
# HRP-Ab2 conjugate suspensions were prepared at 1.0 μg/mL and contained either 0 or 1 mM ascorbic acid. Samples consisted of human serum samples with the indicated mounts of cTnI added or no cTnI as a control. The test procedure consisted of adding 20 μL of 1.0 μg/mL HRP-Ab2 conjugate and 30 μL of MES buffer containing 1 mg/mL BSA and 1 mg/mL MIgG, pH 5.9 to the reaction vessel. Next, 25 μL of patient serum sample was added, followed by 25 μL of 1.0 mg/mL AK-Abl conjugate suspension thereby obtaining 100 μL of total volume in the reaction vessel. After 15.2 minutes, 100 μL of trigger solution A was added to the reaction vessel and the light intensity was recorded on the modified DxI instrument. Chemiluminescence intensity is expressed in Relative Light Units (RLU).
# CK-MB = experiment: Effect of trigger pH: CK-MB on LodeStars with ascorbate; format: biochemical
# Procedure: B. In order to determine the effect of trigger solution pH on a variety of test assay systems, a series of experiments were conducted varying trigger pH. […] In the tables, two pH values are listed for each data set. The first is the pH of the buffer sample added to the reaction mixture. The second is the resulting pH of the final reaction mix.
# [1] = with ascorbic acid, S1, cTnI 172 pg/mL
# [2] = with ascorbic acid, S2, cTnI 366 pg/mL
# [3] = with ascorbic acid, S3, cTnI 1368 pg/mL
# [4] = with ascorbic acid, S4, cTnI 11136 pg/mL
# [5] = with ascorbic acid, S5, cTnI 27922 pg/mL
# [6] = with ascorbic acid, S6, cTnI 106000 pg/mL
# [7] = Control (7.0), S1, CK-MB 3200 ng/ml
# [8] = Control (7.0), S2, CK-MB 9150 ng/ml
# [9] = Control (7.0), S3, CK-MB 26300 ng/ml
# [10] = Control (7.0), S4, CK-MB 94600 ng/ml
# [11] = Control (7.0), S5, CK-MB 268750 ng/ml
# [12] = pH 6.0 (5.9), S1, CK-MB 3200 ng/ml
# [13] = pH 6.0 (5.9), S2, CK-MB 9150 ng/ml
# [14] = pH 6.0 (5.9), S3, CK-MB 26300 ng/ml
# [15] = pH 6.0 (5.9), S4, CK-MB 94600 ng/ml
# [16] = pH 6.0 (5.9), S5, CK-MB 268750 ng/ml
# [17] = pH 7.0 (6.8), S1, CK-MB 3200 ng/ml
# [18] = pH 7.0 (6.8), S2, CK-MB 9150 ng/ml
# [19] = pH 7.0 (6.8), S3, CK-MB 26300 ng/ml
# [20] = pH 7.0 (6.8), S4, CK-MB 94600 ng/ml
# [21] = pH 7.0 (6.8), S5, CK-MB 268750 ng/ml
# [22] = pH 8.0 (7.8), S1, CK-MB 3200 ng/ml
# [23] = pH 8.0 (7.8), S2, CK-MB 9150 ng/ml
# [24] = pH 8.0 (7.8), S3, CK-MB 26300 ng/ml
# [25] = pH 8.0 (7.8), S4, CK-MB 94600 ng/ml
# [26] = pH 8.0 (7.8), S5, CK-MB 268750 ng/ml
# [27] = pH 9.0 (8.6), S1, CK-MB 3200 ng/ml
# [28] = pH 9.0 (8.6), S2, CK-MB 9150 ng/ml
# [29] = pH 9.0 (8.6), S3, CK-MB 26300 ng/ml
# [30] = pH 9.0 (8.6), S4, CK-MB 94600 ng/ml
compound,measurement,setting,value
"O=C1O[C@H]([C@@H](O)CO)C(O)=C1O [Ascorbic Acid, Ascorbic acid]",background signal,"cTnI; in the presence of ascorbic acid, in words",significant reduction in background signal
same,RLU,"cTnI; second column pair (with 1 mM ascorbic acid in conjugate), S0, cTnI 0 pg/mL",422 RLU
same,RLU,cTnI; [1],1320 RLU
same,S/S0,cTnI; [1],3.1
same,RLU,cTnI; [2],2778 RLU
same,S/S0,cTnI; [2],6.6
same,RLU,cTnI; [3],10254 RLU
same,S/S0,cTnI; [3],24.3
same,RLU,cTnI; [4],108628 RLU
same,S/S0,cTnI; [4],257.4
same,RLU,cTnI; [5],325082 RLU
same,S/S0,cTnI; [5],770.3
same,RLU,cTnI; [6],2380772 RLU
same,S/S0,cTnI; [6],5641.6
same,Mean RLU,"CK-MB; Control (7.0), S0, CK-MB 600 ng/ml","1,837 RLU"
same,Mean RLU,CK-MB; [7],"7,380 RLU"
same,S/S0,CK-MB; [7],4.0
same,Mean RLU,CK-MB; [8],"22,931 RLU"
same,S/S0,CK-MB; [8],12.5
same,Mean RLU,CK-MB; [9],"75,857 RLU"
same,S/S0,CK-MB; [9],41.3
same,Mean RLU,CK-MB; [10],"427,483 RLU"
same,S/S0,CK-MB; [10],232.7
same,Mean RLU,CK-MB; [11],"2,055,748 RLU"
same,S/S0,CK-MB; [11],1118.9
same,Mean RLU,"CK-MB; pH 6.0 (5.9), S0, CK-MB 600 ng/ml",693 RLU
same,Mean RLU,CK-MB; [12],"2,849 RLU"
same,S/S0,CK-MB; [12],4.1
same,Mean RLU,CK-MB; [13],"6,812 RLU"
same,S/S0,CK-MB; [13],9.8
same,Mean RLU,CK-MB; [14],"28,129 RLU"
same,S/S0,CK-MB; [14],40.6
same,Mean RLU,CK-MB; [15],"119,144 RLU"
same,S/S0,CK-MB; [15],171.8
same,Mean RLU,CK-MB; [16],"754,177 RLU"
same,S/S0,CK-MB; [16],1087.8
same,Mean RLU,"CK-MB; pH 7.0 (6.8), S0, CK-MB 600 ng/ml","1,788 RLU"
same,Mean RLU,CK-MB; [17],"8,409 RLU"
same,S/S0,CK-MB; [17],4.7
same,Mean RLU,CK-MB; [18],"22,669 RLU"
same,S/S0,CK-MB; [18],12.7
same,Mean RLU,CK-MB; [19],"84,704 RLU"
same,S/S0,CK-MB; [19],47.4
same,Mean RLU,CK-MB; [20],"370,193 RLU"
same,S/S0,CK-MB; [20],207.0
same,Mean RLU,CK-MB; [21],"2,084,173 RLU"
same,S/S0,CK-MB; [21],1165.6
same,Mean RLU,"CK-MB; pH 8.0 (7.8), S0, CK-MB 600 ng/ml","3,263 RLU"
same,Mean RLU,CK-MB; [22],"15,725 RLU"
same,S/S0,CK-MB; [22],4.8
same,Mean RLU,CK-MB; [23],"42,805 RLU"
same,S/S0,CK-MB; [23],13.1
same,Mean RLU,CK-MB; [24],"150,140 RLU"
same,S/S0,CK-MB; [24],46.0
same,Mean RLU,CK-MB; [25],"788,451 RLU"
same,S/S0,CK-MB; [25],241.7
same,Mean RLU,CK-MB; [26],"4,618,668 RLU"
same,S/S0,CK-MB; [26],1415.6
same,Mean RLU,"CK-MB; pH 9.0 (8.6), S0, CK-MB 600 ng/ml","1,512 RLU"
same,Mean RLU,CK-MB; [27],"9,508 RLU"
same,S/S0,CK-MB; [27],6.3
same,Mean RLU,CK-MB; [28],"28,387 RLU"
same,S/S0,CK-MB; [28],18.8
same,Mean RLU,CK-MB; [29],"74,359 RLU"
same,S/S0,CK-MB; [29],49.2
same,Mean RLU,CK-MB; [30],"561,103 RLU"
same,S/S0,CK-MB; [30],371.1

# — patent US20100273189A1, “NON SEPARATION ASSAYS WITH SELECTIVE SIGNAL INHIBITORS” (BECKMAN COULTER, INC., priority 2009, published 2010)
